According to the NIST ThermoML archive (doi:10.1016/j.jct.2016.03.026):
Several values for one entry are separate records, joined by “and”; a condition that tells them apart may be missing. Identical values can stand only once. ± gives the expanded uncertainty stated by the source.

Assay: xn = mol fraction of the nth substance listed
Details: Fluid (supercritical or subcritical phases), Frequency=5 MHz, Pulse-echo method

O=C=O [carbon dioxide] + CO
Details | speed of sound
313.15 K, 90000 kPa, x1 = 0.97 | 980.1 ± 1.3 m/s
313.15 K, 100110 kPa, x1 = 0.97 | 1019.5 ± 1.3 m/s
313.15 K, 109900 kPa, x1 = 0.97 | 1055.1 ± 1.4 m/s
313.15 K, 120040 kPa, x1 = 0.97 | 1089.6 ± 1.4 m/s
313.15 K, 140110 kPa, x1 = 0.97 | 1152.5 ± 1.5 m/s
313.15 K, 159960 kPa, x1 = 0.97 | 1208.8 ± 1.5 m/s
313.15 K, 179840 kPa, x1 = 0.97 | 1260.7 ± 1.6 m/s
323.14 K, 24960 kPa, x1 = 0.925 | 536.3 ± 0.9 m/s and 537.4 ± 0.8 m/s
323.14 K, 24980 kPa, x1 = 0.925 | 537.5 ± 0.8 m/s
323.14 K, 25000 kPa, x1 = 0.925 | 537.5 ± 0.8 m/s
323.14 K, 29980 kPa, x1 = 0.925 | 591.2 ± 0.9 m/s
323.14 K, 29990 kPa, x1 = 0.925 | 591.2 ± 0.9 m/s and 590.7 ± 0.9 m/s and 591.5 ± 0.9 m/s
323.14 K, 34960 kPa, x1 = 0.925 | 636.5 ± 0.9 m/s and 637.2 ± 0.9 m/s
323.14 K, 34980 kPa, x1 = 0.925 | 637.4 ± 0.9 m/s
323.14 K, 34990 kPa, x1 = 0.925 | 637.5 ± 0.9 m/s
323.14 K, 39980 kPa, x1 = 0.925 | 678 ± 0.9 m/s and 677.9 ± 0.9 m/s
323.14 K, 39990 kPa, x1 = 0.925 | 678.6 ± 0.9 m/s
323.14 K, 40000 kPa, x1 = 0.925 | 678.2 ± 0.9 m/s
323.14 K, 44980 kPa, x1 = 0.925 | 714.6 ± 1 m/s and 714.8 ± 1 m/s
323.14 K, 45000 kPa, x1 = 0.925 | 714.7 ± 1 m/s
323.14 K, 49960 kPa, x1 = 0.925 | 748 ± 1 m/s
323.14 K, 49980 kPa, x1 = 0.925 | 748.4 ± 1 m/s and 748.2 ± 1 m/s
323.14 K, 50000 kPa, x1 = 0.925 | 748.4 ± 1 m/s
323.14 K, 54960 kPa, x1 = 0.925 | 779.2 ± 1 m/s
323.14 K, 54980 kPa, x1 = 0.925 | 779.1 ± 1 m/s
323.14 K, 55000 kPa, x1 = 0.925 | 779.3 ± 1 m/s
323.14 K, 55010 kPa, x1 = 0.925 | 779.4 ± 1 m/s
323.14 K, 59980 kPa, x1 = 0.925 | 807.9 ± 1.1 m/s and 808.1 ± 1.1 m/s
323.14 K, 59990 kPa, x1 = 0.925 | 808.2 ± 1.1 m/s
323.14 K, 60030 kPa, x1 = 0.925 | 808.2 ± 1.1 m/s
323.14 K, 64970 kPa, x1 = 0.925 | 835.2 ± 1.1 m/s and 835.3 ± 1.1 m/s and 835.1 ± 1.1 m/s
323.14 K, 64990 kPa, x1 = 0.925 | 835.4 ± 1.1 m/s
323.14 K, 69970 kPa, x1 = 0.925 | 860.9 ± 1.1 m/s and 860.8 ± 1.1 m/s
323.14 K, 69980 kPa, x1 = 0.925 | 861 ± 1.1 m/s
323.14 K, 69990 kPa, x1 = 0.925 | 860.9 ± 1.1 m/s
323.14 K, 74950 kPa, x1 = 0.925 | 885 ± 1.2 m/s
323.14 K, 74990 kPa, x1 = 0.925 | 885.2 ± 1.2 m/s
323.14 K, 75000 kPa, x1 = 0.925 | 885.4 ± 1.2 m/s
323.14 K, 75060 kPa, x1 = 0.925 | 885.5 ± 1.2 m/s
323.14 K, 79970 kPa, x1 = 0.925 | 908.3 ± 1.2 m/s
323.14 K, 79990 kPa, x1 = 0.925 | 908.5 ± 1.2 m/s and 908.4 ± 1.2 m/s
323.14 K, 80000 kPa, x1 = 0.925 | 908.4 ± 1.2 m/s
323.14 K, 89990 kPa, x1 = 0.925 | 951.7 ± 1.2 m/s
323.14 K, 90000 kPa, x1 = 0.925 | 951.8 ± 1.2 m/s and 952 ± 1.2 m/s
323.14 K, 99950 kPa, x1 = 0.925 | 991.5 ± 1.3 m/s
323.14 K, 100000 kPa, x1 = 0.925 | 992.1 ± 1.3 m/s
323.14 K, 100010 kPa, x1 = 0.925 | 991.8 ± 1.3 m/s and 991.7 ± 1.3 m/s
323.14 K, 109960 kPa, x1 = 0.925 | 1028.8 ± 1.3 m/s
323.14 K, 109980 kPa, x1 = 0.925 | 1029.1 ± 1.3 m/s and 1028.9 ± 1.3 m/s
323.14 K, 109990 kPa, x1 = 0.925 | 1029 ± 1.3 m/s
323.14 K, 119970 kPa, x1 = 0.925 | 1063.9 ± 1.4 m/s and 1063.8 ± 1.4 m/s
323.14 K, 119990 kPa, x1 = 0.925 | 1063.9 ± 1.4 m/s
323.14 K, 129960 kPa, x1 = 0.925 | 1096.8 ± 1.4 m/s
323.14 K, 129980 kPa, x1 = 0.925 | 1096.8 ± 1.4 m/s
323.14 K, 129990 kPa, x1 = 0.925 | 1096.8 ± 1.4 m/s
323.14 K, 130020 kPa, x1 = 0.925 | 1096.9 ± 1.4 m/s
323.14 K, 139960 kPa, x1 = 0.925 | 1128 ± 1.4 m/s
323.14 K, 139990 kPa, x1 = 0.925 | 1128 ± 1.4 m/s and 1128.1 ± 1.4 m/s
323.14 K, 140000 kPa, x1 = 0.925 | 1128.1 ± 1.4 m/s
323.14 K, 149960 kPa, x1 = 0.925 | 1157.6 ± 1.5 m/s
323.14 K, 149980 kPa, x1 = 0.925 | 1157.7 ± 1.5 m/s
323.14 K, 149990 kPa, x1 = 0.925 | 1157.7 ± 1.5 m/s
323.14 K, 150010 kPa, x1 = 0.925 | 1157.8 ± 1.5 m/s
323.14 K, 159990 kPa, x1 = 0.925 | 1186.2 ± 1.5 m/s
323.14 K, 160000 kPa, x1 = 0.925 | 1187 ± 1.5 m/s
323.14 K, 160010 kPa, x1 = 0.925 | 1186 ± 1.5 m/s
323.14 K, 160050 kPa, x1 = 0.925 | 1186.2 ± 1.5 m/s
323.14 K, 169940 kPa, x1 = 0.925 | 1213.1 ± 1.5 m/s
323.14 K, 169980 kPa, x1 = 0.925 | 1213.1 ± 1.5 m/s and 1213.3 ± 1.5 m/s
323.14 K, 170010 kPa, x1 = 0.925 | 1213.2 ± 1.5 m/s
323.14 K, 179960 kPa, x1 = 0.925 | 1239.4 ± 1.6 m/s
323.14 K, 180000 kPa, x1 = 0.925 | 1239.1 ± 1.6 m/s and 1239.5 ± 1.6 m/s
323.14 K, 180100 kPa, x1 = 0.925 | 1239.2 ± 1.6 m/s
323.14 K, 189980 kPa, x1 = 0.925 | 1263.9 ± 1.6 m/s
323.14 K, 190000 kPa, x1 = 0.925 | 1264.3 ± 1.6 m/s
323.14 K, 190010 kPa, x1 = 0.925 | 1264.5 ± 1.6 m/s
323.14 K, 190050 kPa, x1 = 0.925 | 1264.6 ± 1.6 m/s
323.15 K, 24960 kPa, x1 = 0.8502 | 549.5 ± 0.8 m/s
323.15 K, 25000 kPa, x1 = 0.7534 | 585.5 ± 0.9 m/s
323.15 K, 29950 kPa, x1 = 0.7534 | 635.7 ± 0.9 m/s
323.15 K, 30020 kPa, x1 = 0.8502 | 602.8 ± 0.9 m/s
323.15 K, 35040 kPa, x1 = 0.7534 | 680.4 ± 1 m/s
323.15 K, 35100 kPa, x1 = 0.8502 | 648.9 ± 0.9 m/s
323.15 K, 40000 kPa, x1 = 0.7534 | 719.1 ± 1 m/s
323.15 K, 40050 kPa, x1 = 0.8502 | 688.4 ± 1 m/s
323.15 K, 45010 kPa, x1 = 0.8502 | 724.5 ± 1 m/s
323.15 K, 45070 kPa, x1 = 0.7534 | 755 ± 1 m/s
323.15 K, 49920 kPa, x1 = 0.8502 | 757.3 ± 1 m/s
323.15 K, 50420 kPa, x1 = 0.7534 | 789.8 ± 1.1 m/s
323.15 K, 55040 kPa, x1 = 0.8502 | 788.7 ± 1.1 m/s
323.15 K, 55120 kPa, x1 = 0.7534 | 818.2 ± 1.1 m/s
323.15 K, 59980 kPa, x1 = 0.8502 | 817.2 ± 1.1 m/s
323.15 K, 60110 kPa, x1 = 0.7534 | 846.6 ± 1.1 m/s
323.15 K, 64840 kPa, x1 = 0.8502 | 843.5 ± 1.1 m/s
323.15 K, 65810 kPa, x1 = 0.7534 | 876.8 ± 1.2 m/s
323.15 K, 69880 kPa, x1 = 0.8502 | 869.3 ± 1.1 m/s
323.15 K, 70220 kPa, x1 = 0.7534 | 899.1 ± 1.2 m/s
323.15 K, 75110 kPa, x1 = 0.8502 | 894.6 ± 1.2 m/s
323.15 K, 75220 kPa, x1 = 0.7534 | 923.1 ± 1.2 m/s
323.15 K, 80180 kPa, x1 = 0.8502 | 918 ± 1.2 m/s
323.15 K, 89680 kPa, x1 = 0.8502 | 959.3 ± 1.2 m/s
323.15 K, 90000 kPa, x1 = 0.7534 | 988.1 ± 1.3 m/s
323.15 K, 99900 kPa, x1 = 0.8502 | 1000.3 ± 1.3 m/s
323.15 K, 100230 kPa, x1 = 0.7534 | 1029 ± 1.3 m/s
323.15 K, 109760 kPa, x1 = 0.8502 | 1037.3 ± 1.3 m/s
323.15 K, 109960 kPa, x1 = 0.7534 | 1065.3 ± 1.4 m/s
323.15 K, 119510 kPa, x1 = 0.8502 | 1071.6 ± 1.4 m/s
323.15 K, 120580 kPa, x1 = 0.7534 | 1102.5 ± 1.4 m/s
323.15 K, 139890 kPa, x1 = 0.8502 | 1137.2 ± 1.5 m/s
323.15 K, 140520 kPa, x1 = 0.7534 | 1166.6 ± 1.5 m/s
323.15 K, 160410 kPa, x1 = 0.7534 | 1224.7 ± 1.6 m/s
323.15 K, 180460 kPa, x1 = 0.7534 | 1278.6 ± 1.6 m/s
323.16 K, 69980 kPa, x1 = 0.9803 | 855.3 ± 1.1 m/s
323.16 K, 74960 kPa, x1 = 0.9803 | 879.8 ± 1.2 m/s
323.16 K, 79950 kPa, x1 = 0.9803 | 903.2 ± 1.2 m/s
323.16 K, 89640 kPa, x1 = 0.9803 | 945.6 ± 1.2 m/s
323.16 K, 99690 kPa, x1 = 0.9803 | 986.1 ± 1.3 m/s
323.16 K, 110360 kPa, x1 = 0.9803 | 1025.6 ± 1.3 m/s
323.16 K, 120030 kPa, x1 = 0.9803 | 1059.8 ± 1.4 m/s
323.16 K, 129970 kPa, x1 = 0.9803 | 1092.5 ± 1.4 m/s
323.16 K, 140230 kPa, x1 = 0.9803 | 1124.5 ± 1.4 m/s
323.16 K, 150140 kPa, x1 = 0.9803 | 1153.8 ± 1.5 m/s
